Test results published in patent US20090143279A1 (priority 2007, published 2009).
Read-outs that look alike come from different tables or passages of the source.

How the values were obtained:
[1] = tested on: mitochondrial membrane potential; assay type: cell-based, mouse
[2] = tested on: reactive oxygen species; assay type: cell-based, mouse
[3] = tested on: OXPHOS gene expression; assay type: cell-based, mouse
[4] = tested on: nuOXPHOS transcripts; assay type: cell-based, mouse
[5] = tested on: mtOXPHOS transcripts; assay type: cell-based, mouse
[6] = tested on: cytochrome c; assay type: cell-based, mouse
[7] = tested on: C2C12 myotubes
[8] = tested on: cellular dehydrogenase activity
[9] = 20 μM, composite Z-score vs DMSO
[10] = normalized composite Z-score vs mock-treated (DMSO) wells, Conc 20 μM
[11] = composite Z-score vs DMSO, Conc 20 μM
[12] = composite Z-score vs DMSO, Conc 8.92 μM
[13] = Conc 20 μM, normalized score vs mock-treated (DMSO) wells
[14] = 14.44 μM, composite Z-score vs DMSO
[15] = composite Z-score vs DMSO wells, Conc 20 μM

C[C@H]1C[C@H]2[C@@H]3CCC4=CC(=O)C=C[C@]4(C)[C@@]3(F)[C@@H](O)C[C@]2(C)[C@@]1(O)C(=O)CO [betamethasone]
ΔΨm (composite Z-score) [1]: 0.849
ROS (composite Z-score) [2]: 0.541
GE-HTS (composite Z-score) [3]: 0.740
nucOX (composite Z-score) [4]: 0.633
mitoOX (composite Z-score) [5]: 0.853
cyt c (composite Z-score) [6]: 0.130
Viability (composite Z-score) [7]: −0.984
MTT (composite Z-score) [8]: −1.063

CC[C@@H](C(=O)[C@@H](C)[C@@H](O)[C@H](C)[C@@H]1O[C@@H]([C@@H](CC)C(=O)O)CC[C@@H]1C)[C@H]1O[C@]2(C=C[C@@H](O)[C@]3(CC[C@@](C)([C@H]4CC[C@](O)(CC)[C@H](C)O4)O3)O2)[C@H](C)C[C@@H]1C [salinomycin, reference compound]
ΔΨm [1, 9]: 2.976
ROS [2, 9]: −3.111
GE-HTS [3, 9]: −1.400
nucOX [4, 9]: −0.345
mitoOX [5, 9]: −3.359
cyt c [6, 9]: −0.566
Viability [7, 9]: −0.247
MTT [8, 9]: −2.918

CC(=O)O[C@@H]1CC2C(C)(C)C(=O)[C@@H]3O[C@@H]3[C@]2(C)C2CC[C@]3(C)C(=CC(=O)O[C@H]3c3ccoc3)[C@@]21C (stereo partly drawn) [1 (2)alpha-epoxydeoxydihydrogedunin]
ΔΨm [1, 10]: 0.074
ROS [2, 10]: 2.784
GE-HTS [3, 10]: −0.801
nucOX [4, 10]: −0.831
mitoOX [5, 10]: −0.539
cyt c [6, 10]: 0.022
Viability [7, 10]: 0.015
MTT [8, 10]: −1.048

CC(=O)C(=Cc1ccccc1)CC(=O)O [3-benzylidenyl-levulinic acid]
ΔΨm (composite Z-score) [1]: −0.170
ROS (composite Z-score) [2]: 0.382
GE-HTS (composite Z-score) [3]: −0.639
nucOX (composite Z-score) [4]: −0.553
mitoOX (composite Z-score) [5]: −0.647
cyt c (composite Z-score) [6]: −0.165
Viability (composite Z-score) [7]: −0.431
MTT (composite Z-score) [8]: −0.665

COc1cc(C=CC=O)cc(OC)c1OC [3,4,5-trimethoxycinnamaldehyde]
ΔΨm [1, 11]: 0.647
ROS [2, 11]: −0.228
GE-HTS [3, 11]: −0.523
nucOX [4, 11]: −0.724
mitoOX [5, 11]: 0.025
cyt c [6, 11]: −0.808
Viability [7, 11]: 1.061
MTT [8, 11]: 1.043

Cc1onc(-c2ccccc2)c1C(=O)N[C@@H]1C(=O)N2[C@@H]1SC(C)(C)[C@@H]2C(=O)[O-].[Na+] [oxacillin sodium]
ΔΨm [1, 11]: −0.432
ROS [2, 11]: 0.572
GE-HTS [3, 11]: −0.790
nucOX [4, 11]: −0.629
mitoOX [5, 11]: −0.881
cyt c [6, 11]: −0.361
Viability [7, 11]: −1.101
MTT [8, 11]: −1.064

CC(CN(C)C)CN1c2ccccc2Sc2ccccc21 (centres unmarked) [trimeprazine]
ΔΨm [1, 12]: −0.821
ΔΨm [1, 11]: 1.905
ROS [2, 12]: 1.314
ROS [2, 11]: −0.430
GE-HTS [3, 12]: −0.942
GE-HTS [3, 11]: −0.013
nucOX [4, 12]: −0.936
nucOX [4, 11]: −0.130
mitoOX [5, 12]: −0.778
mitoOX [5, 11]: 0.208
cyt c [6, 12]: −2.786
cyt c [6, 11]: −0.086
Viability [7, 12]: 0.760
Viability [7, 11]: −1.472
MTT [8, 12]: −2.221
MTT [8, 11]: −2.227

COC(=O)/C(=C1/OC(=O)C(c2ccccc2)=C1O)c1ccccc1 [vulpinic acid]
ΔΨm [1, 9]: −3.484
ROS [2, 9]: 1.407
GE-HTS [3, 9]: −0.152
nucOX [4, 9]: 0.168
mitoOX [5, 9]: −0.792
cyt c [6, 9]: 1.037
Viability [7, 9]: −1.120
MTT [8, 9]: 0.403

CCOc1ccc(C(=O)c2ccc(O)c(O)c2O)cc1 [2,3,4-trihydroxy-4′-ethoxybenzophenone]
ΔΨm (composite Z-score) [1, 13]: −1.185
ROS (composite Z-score) [2, 13]: 0.052
GE-HTS (composite Z-score) [3, 13]: −0.823
nucOX (composite Z-score) [4, 13]: −0.896
mitoOX (composite Z-score) [5, 13]: −0.478
cyt c (composite Z-score) [6, 13]: 0.440
Viability (composite Z-score) [7, 13]: −0.413
MTT (composite Z-score) [8, 13]: −2.368

CC(=O)O[C@H]1C[C@@H](OC(C)=O)C(C)(C)[C@@H]2C[C@@H](OC(C)=O)[C@@]3(C)C4=CC(=O)O[C@@H](c5ccoc5)[C@]4(C)CC[C@@H]3[C@@]12C [deoxykhivorin]
ΔΨm (composite Z-score) [1, 13]: 0.449
ROS (composite Z-score) [2, 13]: −0.038
GE-HTS (composite Z-score) [3, 13]: −1.026
nucOX (composite Z-score) [4, 13]: −0.917
mitoOX (composite Z-score) [5, 13]: −1.101
cyt c (composite Z-score) [6, 13]: 0.073
Viability (composite Z-score) [7, 13]: 0.803
MTT (composite Z-score) [8, 13]: −0.494

CC(C)(C)NCC(O)c1cc(Cl)c(N)c(Cl)c1 (centres unmarked) [clenbuterol]
ΔΨm [1, 14]: −1.139
ROS [2, 14]: 0.914
GE-HTS [3, 14]: 0.054
nucOX [4, 14]: 0.063
mitoOX [5, 14]: 0.011
cyt c [6, 14]: −0.261
Viability [7, 14]: 0.134
MTT [8, 14]: −1.330

COc1ccccc1-c1cc(=O)c2cccc(OC)c2o1 [8,2′-dimethoxyflavone]
ΔΨm (composite Z-score) [1, 13]: 1.282
ROS (composite Z-score) [2, 13]: 1.219
GE-HTS (composite Z-score) [3, 13]: −0.593
nucOX (composite Z-score) [4, 13]: −0.414
mitoOX (composite Z-score) [5, 13]: −0.811
cyt c (composite Z-score) [6, 13]: 0.864
Viability (composite Z-score) [7, 13]: −1.096
MTT (composite Z-score) [8, 13]: −0.556

CNC[C@H](O)c1cccc(O)c1 [phenylephrine]
ΔΨm [1]: −0.460
ROS [2]: 0.474
GE-HTS [3]: 0.254
nucOX [4]: 0.120
mitoOX [5]: 0.536
cyt c [6]: −0.187
Viability [7]: −0.349
MTT [8]: 1.105

CCCOc1ccccc1-c1nc2nn[nH]c2c(=O)[nH]1 [zaprinast]
ΔΨm [1, 15]: −0.347
ROS [2, 15]: −0.482
GE-HTS [3, 15]: 0.076
nucOX [4, 15]: 0.220
mitoOX [5, 15]: −0.234
cyt c [6, 15]: 0.226
Viability [7, 15]: 0.602
MTT [8, 15]: −1.175

N=C(N)N.N=C(N)N.O=C(O)O [guanidine carbonate]
ΔΨm [1, 11]: −0.252
ROS [2, 11]: 0.401
GE-HTS [3, 11]: −1.142
nucOX [4, 11]: −1.112
mitoOX [5, 11]: −0.993
cyt c [6, 11]: −1.206
Viability [7, 11]: −0.835
MTT [8, 11]: −0.683

COc1cc(O)c2c(=O)cc(-c3ccc(O)cc3)oc2c1 [genkwanin]
ΔΨm (composite Z-score) [1, 13]: −0.491
ROS (composite Z-score) [2, 13]: 3.337
GE-HTS (composite Z-score) [3, 13]: 0.425
nucOX (composite Z-score) [4, 13]: 0.407
mitoOX (composite Z-score) [5, 13]: 0.389
cyt c (composite Z-score) [6, 13]: −0.037
Viability (composite Z-score) [7, 13]: −0.323
MTT (composite Z-score) [8, 13]: −2.090

COc1cc2c3cc1Oc1cc(ccc1O)CC1c4c(cc(OC)c(O)c4Oc4ccc(cc4)CC3N(C)CC2)CCN1C (centres unmarked) [bebeerine]
ΔΨm (composite Z-score) [1, 13]: −0.800
ROS (composite Z-score) [2, 13]: 0.759
GE-HTS (composite Z-score) [3, 13]: −0.005
nucOX (composite Z-score) [4, 13]: −0.028
mitoOX (composite Z-score) [5, 13]: 0.119
cyt c (composite Z-score) [6, 13]: 0.389
Viability (composite Z-score) [7, 13]: −0.728
MTT (composite Z-score) [8, 13]: −1.681

CO/N=C(\C(=O)N[C@@H]1C(=O)N2C(C(=O)O)=C(CSc3nc(=O)c(=O)[nH]n3C)CS[C@H]12)c1csc(N)n1 [ceftriaxone]
ΔΨm [1]: −0.461
ROS [2]: −0.002
GE-HTS [3]: −0.433
nucOX [4]: −0.439
mitoOX [5]: −0.382
cyt c [6]: 0.481
Viability [7]: −0.792
MTT [8]: −1.040
